Experimental data from PubChem BioAssay (NCI).
Several values for one entry are separate records, joined by “and”; a condition that tells them apart may be missing. Equal values may be shown once.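 Growth conditions: 96-well plates. Treatment: test compound, 48 hours, 5 concentrations. Analysis: linear interpolation between bracketing concentrations; unreached endpoints set to highest concentration. GI50 = concentration required for 50% inhibition of growth. TGI is the concentration that stops growth completely.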

Tests used:
Assay in all cases: NCI anticancer screen, dose series, 48 h
ACHN renal = system: ACHN renal
UACC-62 melanoma = system: UACC-62 melanoma
MCF7 breast = system: MCF7 breast
SW-620 colon = system: SW-620 colon
BT-549 breast = system: BT-549 breast
SK-MEL-28 melanoma = system: SK-MEL-28 melanoma
MALME-3M melanoma = system: MALME-3M melanoma
K-562 leukemia = system: K-562 leukemia
COLO 205 colon = system: COLO 205 colon
HCT-116 colon = system: HCT-116 colon

Structure (SMILES) | GI50 (ACHN renal) | TGI (ACHN renal) | GI50 (UACC-62 melanoma) | TGI (UACC-62 melanoma) | GI50 (MCF7 breast) | TGI (MCF7 breast) | GI50 (SW-620 colon) | TGI (SW-620 colon) | GI50 (BT-549 breast) | TGI (BT-549 breast) | GI50 (SK-MEL-28 melanoma) | TGI (SK-MEL-28 melanoma) | GI50 (MALME-3M melanoma) | TGI (MALME-3M melanoma) | GI50 (K-562 leukemia) | TGI (K-562 leukemia) | GI50 (COLO 205 colon) | TGI (COLO 205 colon) | GI50 (HCT-116 colon) | TGI (HCT-116 colon)
CC(c1ccccc1)[C@@H](C(=O)Nc1ccc(I)cc1F)N1C(=O)N[C@H](c2ccc(OC[C@H](O)CO)cc2)C1=O (some centres not stated) | 8.48 µM | > 25 µM | 55.1 nM | 2250 nM | > 15 µM | > 25 µM | 1090 nM | > 25 µM | 9170 nM | > 23.7 µM | 0.026 µM | > 25 µM | 2.5 nM | 0.0856 µM | 9.38 µM | > 25 µM | 36.8 nM | > 25 µM | 1120 nM | > 25 µM
Cc1ccc(Cl)cc1NC(=O)c1cc2ccccc2cc1O | 0.351 µM | 2.8 µM | 308 nM | 2650 nM | 1.35 µM | 4.88 µM | 414 nM | > 100 µM | 294 nM | 1.28 µM | – | – | 211 nM | 0.692 µM | 0.365 µM | 10.1 µM | 1700 nM | 3.48 µM | 284 nM | 0.924 µM
COc1ccc(Cl)cc1Nc1nc(C(F)(F)F)ccc1C(=O)N/N=C/c1cccnc1 | 4.04 µM | > 100 µM | 3690 nM | > 100000 nM | 3.51 µM | > 100 µM | 4070 nM | > 100 µM | 1990 nM | > 100 µM | 3.95 µM | > 100 µM | 2550 nM | > 100 µM | 3.16 µM | > 100 µM | 2580 nM | > 100 µM | 3430 nM | > 100 µM
Nc1nnnc2nc[nH]c12 | 1.08 µM | > 100 µM | 637 nM | 2720 nM | 2.58 µM | > 100 µM | 780 nM | > 100 µM | 1030 nM | > 25.2 µM | – | > 45.8 µM | 759 nM | 7.06 µM | 3.72 µM | > 100 µM | 1850 nM | 7.47 µM | 639 nM | > 100 µM
COc1cccc(C2=C(c3cn(C)c4cc(F)ccc34)C(=O)NC2=O)c1 | 10.5 µM | > 25 µM | 14300 nM | > 25000 nM | 7.56 µM | > 25 µM | 13100 nM | > 25 µM | > 24000 nM | > 25 µM | > 25 µM | > 25 µM | > 18000 nM | > 25 µM | 12.4 µM | > 25 µM | 10900 nM | > 25 µM | 8590 nM | > 25 µM
Nc1cc(C(F)(F)F)c(-c2cc(N3CCOCC3)nc(N3CCOCC3)n2)cn1 | 0.906 µM and 1.14 µM | > 100 µM | 318 nM and 375 nM | 1990 nM and 2920 nM | 0.228 µM and 0.257 µM | > 10 µM and 4.05 µM | 1000 nM and 717 nM | > 100 µM | 558 nM and 727 nM | > 7.16 µM and 6.67 µM | 0.555 µM and 0.536 µM | 5.14 µM and 4.38 µM | 325 nM and 369 nM | 2.53 µM and 4.95 µM | 0.875 µM and 0.58 µM | > 100 µM | 629 nM and 1250 nM | 2.8 µM and 3.42 µM | 1210 nM and 1120 nM | > 10 µM and 9.38 µM
C(=Nc1cnc2ccccc2c1)c1ccc2ccccc2n1 | – | > 100 µM | – | > 100000 nM | – | > 100 µM | – | > 100 µM | – | > 100 µM | – | > 100 µM | – | > 100 µM | – | > 100 µM | – | > 100 µM | – | > 100 µM
Cc1nc(-c2cnc(NC(C)C)n(C)c2=O)ccc1Oc1ccnc(-c2cnn(C)c2)c1 | 18.9 µM | > 100 µM | 4840 nM | 45700 nM | 5.07 µM | > 100 µM | 5490 nM | > 100 µM | 12700 nM | 70 µM | 14.2 µM | > 100 µM | 12600 nM | 68.8 µM | 1.64 µM | 9.33 µM | 10600 nM | 80.7 µM | 4670 nM | > 100 µM
CCOc1ccc2c(c1)CN(Cc1ccc(Cl)cc1)CO2 | 19.3 µM | 55 µM | 16100 nM | 31200 nM | 16.4 µM | 35.2 µM | 16400 nM | 32.1 µM | 17600 nM | 36.8 µM | 14.4 µM | 28.4 µM | 14800 nM | 29.5 µM | 17 µM | 57 µM | 19000 nM | 36.1 µM | 14800 nM | 29 µM
COc1cccc(/C=C/c2ccnc3ccccc23)c1OC | – | > 10 µM | – | > 10000 nM | – | > 10 µM | – | > 10 µM | – | > 10 µM | – | > 10 µM | – | > 10 µM | – | > 10 µM | – | > 10 µM | – | > 10 µM
